Test results reported in US6277847A, “Herbicidal isoindolinonyl-and 3,4-dihydroisoquinolonyl-substituted heterocycles” (FMC Corporation, priority 2000, dated 2001).

How the values were obtained:
Type in all cases: in vivo
[1] = tested on: field corn (Zea mays var. Pioneer 3732); assay: post-emergence herbicidal activity, corn; conditions: 1 Kg/Ha, about fourteen days, read-out: post-emergence herbicidal activity (% control) CRN
Protocol: (§1) This example sets forth the methods of herbicidal testing conducted on the specific compounds set forth below. Specifically, the compounds referenced below were tested for pre- and post-emergence herbicidal activity using a variety of crops and weeds. The test plants include, but are not limited to, soybean (Glycine max -- var. Winchester), field corn (Zea mays var. Pioneer 3732), wheat (Triticum aestivum var. Lew), morningglory (Ipomea lacunosa or Ipomea hederacea), velvetleaf (Abutilon theophrasti), green foxtail (Setaria viridis), Johnsongrass (Sorghum halepense), blackgrass (Aloepecurus myosuroides), common chickweed (Stellaria media), and common cocklebur (Xanthium strumarium L.).
(§2) In the post-emergence test, seeds of the plant species named above were planted in flats containing the appropriate soil mixture where they were maintained to allow the seeds to germinate. When the plants in these flats reached the proper stage of growth, flats for the pre-emergence tests were planted in a like manner. The flats containing the post-emergence and pre-emergence test plant species were then sprayed with an appropriately concentrated water/acetone solution of test compound. Once treated the flats were maintained, along with untreated controls, for about fourteen days. All treated plants were then examined for phytotoxicity, which was expressed as percent control where 0 is no effect and 100 is complete control. Effective rates of application for the compounds of the present invention range from 0.001 to 3 kg/ha, more likely from […] to 1 Kg/ha.
(§3) Herbicidal activity data at selected application rates are in Tables 4 and 5. The test compounds are identified by numbers correspond to those in Table 1.
(§4) SOY is soybean, WHT is wheat, CRN is corn, ABUTH is velvetleaf, IPOSS is
(§5) morningglory, STEME is chickweed, XANPE is cocklebur, ALOMY is blackgrass,
(§6) Rate of application of test compound is 1 Kg/Ha. The definitions as shown under Table 4 apply to Table 5.

[2] = tested on: green foxtail (Setaria viridis); assay: pre-emergence herbicidal activity, green foxtail; conditions: 1 kg/Ha, about fourteen days, read-out: pre-emergence herbicidal activity (% control) SETVI
Protocol: as §1, §2, §3
(§7) Rate of application of test compound is 1 kg/Ha
as §4
(§8) morningglory, STEME is chickweed, XANPE is cocklebur, ALOMY is blackgrass, […]

[3] = tested on: morningglory (Ipomea lacunosa or Ipomea hederacea); assay: post-emergence herbicidal activity, morningglory; conditions: Ipomoea, 1 Kg/Ha, about fourteen days, read-out: post-emergence herbicidal activity (% control) IPOSS
Protocol: as §1, §2, §3, §4, §5, §6

[4] = tested on: field corn (Zea mays var. Pioneer 3732); assay: pre-emergence herbicidal activity, corn; conditions: 1 kg/Ha, about fourteen days, read-out: pre-emergence herbicidal activity (% control) CRN
Protocol: as §1, §2, §3, §7, §4, §8

[5] = tested on: common chickweed (Stellaria media); assay: post-emergence herbicidal activity, chickweed; conditions: 1 Kg/Ha, about fourteen days, read-out: post-emergence herbicidal activity (% control) STEME
Protocol: as §1, §2, §3, §4, §5, §6

[6] = tested on: velvetleaf (Abutilon theophrasti); assay: pre-emergence herbicidal activity, velvetleaf; conditions: 1 kg/Ha, about fourteen days, read-out: pre-emergence herbicidal activity (% control) ABUTH
Protocol: as §1, §2, §3, §7, §4, §8

[7] = tested on: morningglory (Ipomea lacunosa or Ipomea hederacea); assay: pre-emergence herbicidal activity, morningglory; conditions: Ipomoea, 1 kg/Ha, about fourteen days, read-out: pre-emergence herbicidal activity (% control) IPOSS
Protocol: as §1, §2, §3, §7, §4, §8

[8] = tested on: green foxtail (Setaria viridis); assay: post-emergence herbicidal activity, green foxtail; conditions: 1 Kg/Ha, about fourteen days, read-out: post-emergence herbicidal activity (% control) SETVI
Protocol: as §1, §2, §3, §4, §5, §6

[9] = tested on: blackgrass (Aloepecurus myosuroides); assay: pre-emergence herbicidal activity, blackgrass; conditions: Alopecurus myosuroides, 1 kg/Ha, about fourteen days, read-out: pre-emergence herbicidal activity (% control) ALOMY
Protocol: as §1, §2, §3, §7, §4, §8

[10] = tested on: soybean (Glycine max -- var. Winchester); assay: pre-emergence herbicidal activity, soybean; conditions: 1 kg/Ha, about fourteen days, read-out: pre-emergence herbicidal activity (% control) SOY
Protocol: as §1, §2, §3, §7, §4, §8

[11] = tested on: Johnsongrass (Sorghum halepense); assay: post-emergence herbicidal activity, johnsongrass; conditions: 1 Kg/Ha, about fourteen days, read-out: post-emergence herbicidal activity (% control) SORHA
Protocol: as §1, §2, §3, §4, §5, §6

[12] = tested on: velvetleaf (Abutilon theophrasti); assay: post-emergence herbicidal activity, velvetleaf; conditions: 1 Kg/Ha, about fourteen days, read-out: post-emergence herbicidal activity (% control) ABUTH
Protocol: as §1, §2, §3, §4, §5, §6

[13] = tested on: wheat (Triticum aestivum var. Lew); assay: post-emergence herbicidal activity, wheat; conditions: 1 Kg/Ha, about fourteen days, read-out: post-emergence herbicidal activity (% control) WHT
Protocol: as §1, §2, §3, §4, §5, §6

[14] = tested on: common chickweed (Stellaria media); assay: pre-emergence herbicidal activity, chickweed; conditions: 1 kg/Ha, about fourteen days, read-out: pre-emergence herbicidal activity (% control) STEME
Protocol: as §1, §2, §3, §7, §4, §8

[15] = tested on: soybean (Glycine max -- var. Winchester); assay: post-emergence herbicidal activity, soybean; conditions: 1 Kg/Ha, about fourteen days, read-out: post-emergence herbicidal activity (% control) SOY
Protocol: as §1, §2, §3, §4, §5, §6

[16] = tested on: common cocklebur (Xanthium strumarium L.); assay: pre-emergence herbicidal activity, cocklebur; conditions: 1 kg/Ha, about fourteen days, read-out: pre-emergence herbicidal activity (% control) XANPE
Protocol: as §1, §2, §3, §7, §4, §8

[17] = tested on: common cocklebur (Xanthium strumarium L.); assay: post-emergence herbicidal activity, cocklebur; conditions: 1 Kg/Ha, about fourteen days, read-out: post-emergence herbicidal activity (% control) XANPE
Protocol: as §1, §2, §3, §4, §5, §6

[18] = tested on: wheat (Triticum aestivum var. Lew); assay: pre-emergence herbicidal activity, wheat; conditions: 1 kg/Ha, about fourteen days, read-out: pre-emergence herbicidal activity (% control) WHT
Protocol: as §1, §2, §3, §7, §4, §8

Cn1c(C(F)(F)F)cc(=O)n(-c2ccc(Cl)c3c2CN(CC#N)C3=O)c1=O [Compound 30] showed an activity at 1000 g/ha [1] of 95%, an activity at 1000 g/ha [2] of 100% and an activity at 1000 g/ha [3] of 100%. For the same molecule, the activity at 1000 g/ha [4] was 100%, the activity at 1000 g/ha [5] was 100% and the activity at 1000 g/ha [6] was 100%. For the same molecule, the activity at 1000 g/ha [7] was 100%, the activity at 1000 g/ha [8] was 100% and the activity at 1000 g/ha [9] was 100%. It also gave an activity at 1000 g/ha [10] of 100%, an activity at 1000 g/ha [11] of 100% and an activity at 1000 g/ha [12] of 100%. For the same molecule, the activity at 1000 g/ha [13] was 60%, the activity at 1000 g/ha [14] was 100% and the activity at 1000 g/ha [15] was 100%. It also gave an activity at 1000 g/ha [16] of 100%, an activity at 1000 g/ha [17] of 100% and an activity at 1000 g/ha [18] of 100%.

Cn1c(C(F)(F)F)cc(=O)n(-c2ccc(Cl)c3c2CN(CC(F)(F)F)C3=O)c1=O [Compound 28] showed an activity at 1000 g/ha [1] of 100%, an activity at 1000 g/ha [2] of 100% and an activity at 1000 g/ha [3] of 100%. It also gave an activity at 1000 g/ha [4] of 100%, an activity at 1000 g/ha [5] of 100% and an activity at 1000 g/ha [6] of 100%. It also gave an activity at 1000 g/ha [7] of 100%, an activity at 1000 g/ha [8] of 100% and an activity at 1000 g/ha [9] of 100%. It also gave an activity at 1000 g/ha [10] of 100%, an activity at 1000 g/ha [11] of 100% and an activity at 1000 g/ha [12] of 100%. The activity at 1000 g/ha [13] was 100%, the activity at 1000 g/ha [14] was 100% and the activity at 1000 g/ha [15] was 100%. It also gave an activity at 1000 g/ha [16] of 100%, an activity at 1000 g/ha [17] of 100% and an activity at 1000 g/ha [18] of 100%.

With COCN1Cc2c(-n3c(=O)cc(C(F)(F)F)n(C)c3=O)ccc(Cl)c2C1=O [Compound 31] the activity at 1000 g/ha [1] was 100%, the activity at 1000 g/ha [2] was 100% and the activity at 1000 g/ha [3] was 100%. It also gave an activity at 1000 g/ha [4] of 100%, an activity at 1000 g/ha [5] of 100% and an activity at 1000 g/ha [6] of 100%. For the same molecule, the activity at 1000 g/ha [7] was 100%, the activity at 1000 g/ha [8] was 100% and the activity at 1000 g/ha [9] was 100%. It also gave an activity at 1000 g/ha [10] of 100%, an activity at 1000 g/ha [11] of 100% and an activity at 1000 g/ha [12] of 100%. The activity at 1000 g/ha [13] was 100%, the activity at 1000 g/ha [14] was 100% and the activity at 1000 g/ha [15] was 100%. The activity at 1000 g/ha [16] was 100%, the activity at 1000 g/ha [17] was 100% and the activity at 1000 g/ha [18] was 100%.

With COc1ccc(CN2Cc3c(-n4c(=O)cc(C(F)(F)F)n(C)c4=O)ccc(Cl)c3C2=O)cc1 [Compound 25] the activity at 1000 g/ha [1] was 90%, the activity at 1000 g/ha [2] was 100% and the activity at 1000 g/ha [3] was 90%. The activity at 1000 g/ha [4] was 95%, the activity at 1000 g/ha [5] was 80% and the activity at 1000 g/ha [6] was 100%. The activity at 1000 g/ha [7] was 70%, the activity at 1000 g/ha [8] was 100% and the activity at 1000 g/ha [9] was 75%. For the same molecule, the activity at 1000 g/ha [10] was 50%, the activity at 1000 g/ha [11] was 75% and the activity at 1000 g/ha [12] was 100%. It also gave an activity at 1000 g/ha [13] of 40%, an activity at 1000 g/ha [14] of 100% and an activity at 1000 g/ha [15] of 80%. For the same molecule, the activity at 1000 g/ha [16] was 40%, the activity at 1000 g/ha [17] was 60% and the activity at 1000 g/ha [18] was 60%.

Work on Cn1c(C(F)(F)F)cc(=O)n(-c2ccc(Cl)c3c2CN(CC2CC2)C3=O)c1=O [Compound 29] yielded an activity at 1000 g/ha [1] of 100%, an activity at 1000 g/ha [2] of 100% and an activity at 1000 g/ha [3] of 100%. The activity at 1000 g/ha [4] was 100%, the activity at 1000 g/ha [5] was 100% and the activity at 1000 g/ha [6] was 100%. The activity at 1000 g/ha [7] was 100%, the activity at 1000 g/ha [8] was 100% and the activity at 1000 g/ha [9] was 100%. It also gave an activity at 1000 g/ha [10] of 100%, an activity at 1000 g/ha [11] of 100% and an activity at 1000 g/ha [12] of 100%. It also gave an activity at 1000 g/ha [13] of 100%, an activity at 1000 g/ha [14] of 100% and an activity at 1000 g/ha [15] of 100%. It also gave an activity at 1000 g/ha [16] of 100%, an activity at 1000 g/ha [17] of 100% and an activity at 1000 g/ha [18] of 100%.

Work on CC(C)N1Cc2c(-n3c(=O)cc(C(F)(F)F)n(N)c3=O)ccc(Cl)c2C1=O [Compound 70] yielded an activity at 1000 g/ha [1] of 100%, an activity at 1000 g/ha [2] of 100% and an activity at 1000 g/ha [3] of 100%. For the same molecule, the activity at 1000 g/ha [4] was 100%, the activity at 1000 g/ha [5] was 100% and the activity at 1000 g/ha [6] was 100%. For the same molecule, the activity at 1000 g/ha [7] was 100%, the activity at 1000 g/ha [8] was 100% and the activity at 1000 g/ha [9] was 100%. The activity at 1000 g/ha [10] was 100%, the activity at 1000 g/ha [11] was 100% and the activity at 1000 g/ha [12] was 100%. It also gave an activity at 1000 g/ha [13] of 100%, an activity at 1000 g/ha [14] of 100% and an activity at 1000 g/ha [15] of 100%. The activity at 1000 g/ha [16] was 100%, the activity at 1000 g/ha [17] was 100% and the activity at 1000 g/ha [18] was 100%.
